Results: patent publication US8309790B2, “Animal models for demyelination disorders” (University of Chicago, priority 2005, dated 2012)

System: corpus callosum of double transgenic mice treated with cuprizone
Test: Cuprizone-induced demyelination and remyelination in GFAP/tTA; TRE/IFN-γ double transgenic mice
Type: in vivo
Description: The effects of IFN-γ on demyelination were evaluated in a cuprizone animal model using transgenic mice that allow for temporally regulated delivery of IFN-γ using the tetracycline controllable system (Lin, et al. (2004) J. Neurosci. 24: 10074-10083). The transgenic mice were generated by mating line 110 GFAP/tTA mice on the C57BL/6 background with line 184 TRE/IFN-γ on the C57BL/6 background to produce GFAP/tTA; TRE/IFN-γ double transgenic mice (Lin, et al. (2004) J. Neurosci. 24: 10074-10083). Transcriptional activation of the TRE/IFN-γ transgene by tTA was repressed in the control (DOX+) mice by adding 0.05 mg/ml doxycycline to the drinking water which was provided ad libitum from the day of conception. The DOX+ double transgenic mice were GFAP/tTA; TRE/IFN-γdouble transgenic animals fed cuprizone chow and never released from the doxycycline solution. DOX− double transgenic mice were GFAP/tTA; TRE/IFN-γdouble transgenic animals fed cuprizone chow and released from doxycycline to induce expression of IFN-γ.
Demyelination was induced in 6-week-old DOX+ and DOX− male mice by feeding the mice a diet of milled mouse chow containing 0.2% cuprizone (Sigma-Aldrich, St. Louis, […].) for up to 6 weeks. Subsequently, both groups of mice were returned to a normal diet for up to 3 weeks to allow remyelination to occur. All animal procedures were conducted in complete compliance with the NIH Guide for the Care and Use of Laboratory Animals and were approved by the Institutional Animal Care and Use Committee of The University of Chicago.
The effects of INF-γ and MBP on demyelination were evaluated as the level of INF-γ and MHC-1, the loss of oligodendrocytes, and the expression of myelin genes.
The expression of IFN-γ in these animals was examined by Enzyme-Linked Immunosorbent Assay (ELISA) analysis as follows. Spinal cord and forebrains were removed, rinsed in ice cold PBS, and immediately homogenized in five volumes of PBS with complete protease cocktail (Roche, Indianapolis, Ind.) using a motorized homogenizer. After incubation on ice for 5 min the extracts were cleared by centrifugation at 14000 rpm for 10 min. The protein content of each extract was determined by the DC protein assay (Bio-Rad, Hercules, Calif.). […]
The effect of INF-γ on the population of oligodendrocytes was evaluated by immunohistochemical analysis of oligodendrocytes using an anti-CC1 antibody (APC7, 1:50; EMD Biosciences, Inc., La Jolla, Calif.) Immunohistochemistry was performed on brain sections obtained from mice that were first anesthetized mice and perfused through the left cardiac ventricle with 4% paraformaldehyde in 0.1 M PBS. […]

interferon-γ [IFN-γ]
remyelinated axons (DOX− mice, corpus callosum, 8 weeks, EM): 26.9%±7% | expression of myelin genes MBP, PLP and CGT (DOX− mice, corpus callosum, week 6 and week 8): significantly depressed | expression of MHC class I (MHC-I) in the corpus callosum, real-time PCR (DOX− mice, during remyelination): significant increase | effect on the initial pathological processes induced by cuprizone exposure (DOX− vs DOX+ mice, up to 5 weeks cuprizone): does not have a significant effect
